# Measurements taken from US20220202906A1, “VASOACTIVE INTESTINAL PEPTIDE (VIP) FOR USE IN THE TREATMENT OF DRUG-INDUCED PNEUMONITIS” (ADVITA L[…], priority 2019, published 2022).
# Experiments:
# [1] = Off-label inhaled VIP therapy in a patient with checkpoint inhibitor-induced pneumonitis; assay type: in vivo, human
# Description: A patient, who was treated with checkpoint inhibitors, developed CIP and steroid treatment led to insufficient control. Because of missing other approved therapeutic options the patient was treated off-label with inhaled VIP therapy initiated at a dose of 4×70 μg/ml per day dosage (280 μg per day with overnight break).
# [2] = sarcoidosis, inhaled aerosolized VIP; cited from earlier work
# [3] = 50 μg four times daily by inhalation, 28 days; cited from earlier work
# [4] = Blood level of VIP after aerosol administration; assay type: in vivo
# Source text: This is especially unexpected as the treatment with aerosols is normally regarded to be only efficient if inhaled noxes are the cause of the pulmonary defects. In the context of the present invention, a systemic substance is, however, the cause of drug-induced pneumonitis (such as CIP) and therefore topic administration is not expected to have any great effect.
# [5] = Aerosol characterisation with M-Neb dose+ mesh nebulizer MN-300/8 and COPLEY next generation impactor (NGI); assay type: physicochemical; details: VIP dissolved in 0.9% NaCl
# Source text: Using the M-Neb® dose+ mesh nebulizer MN-300/8 and the respective mouthpiece, VIP has been tested with the COPLEY next generation impactor (NGI). The mass median aerodynamic diameter (MMD) of VIP dissolved in 0.9% NaCl was 3.3-3.5 μm per emitted particle.
# [6] = human, in vivo
# [7] = CIP patient, inhaled VIP 280 μg per day
smiles,measurement,setting,value
"CC[C@H](C)[C@H](NC(=O)[C@H](CO)NC(=O)[C@H](CC(N)=O)NC(=O)[C@H](CC(C)C)NC(=O)[C@H](Cc1ccc(O)cc1)NC(=O)[C@H](CCCCN)NC(=O)[C@H](CCCCN)NC(=O)[C@@H](NC(=O)[C@H](C)NC(=O)[C@H](CCSC)NC(=O)[C@H](CCC(N)=O)NC(=O)[C@H](CCCCN)NC(=O)[C@H](CCCNC(=N)N)NC(=O)[C@H](CC(C)C)NC(=O)[C@H](CCCNC(=N)N)NC(=O)[C@@H](NC(=O)[C@H](Cc1ccc(O)cc1)NC(=O)[C@H](CC(N)=O)NC(=O)[C@H](CC(=O)O)NC(=O)[C@@H](NC(=O)[C@H](Cc1ccccc1)NC(=O)[C@@H](NC(=O)[C@H](C)NC(=O)[C@H](CC(=O)O)NC(=O)[C@H](CO)NC(=O)[C@@H](N)Cc1c[nH]cn1)C(C)C)[C@@H](C)O)[C@@H](C)O)C(C)C)C(=O)N[C@@H](CC(C)C)C(=O)N[C@@H](CC(N)=O)C(N)=O [VIP, Vasoactive intestinal peptide]",alveolar inflammation as measured by bronchoalveolar lavage,[1]; [7],dampened by an increase of regulatory T-cell
same,patient's general health,[1]; [7],ameliorated
same,radiological alterations (e.g. consolidations),[1]; [7],diminished
same,lung function,"[1]; CIP patient, inhaled VIP 4×70 μg per day (280 μg per day)",normalized within six months of treatment
same,side effects on the patient's immune system,[1]; VIP inhalation in CIP,does not suffer from severe side effects on the patient's immune system
same,TNF-release,[2],decrease of TNF-release
same,regulatory T-cells,[2],increase of regulatory T-cells
same,symptoms,[2],symptomatic relief
same,tolerability / adverse events,[3],well tolerated without serious adverse events
same,blood level of VIP,[4],does not lead to an elevated blood level of VIP
same,dose delivered at the mouthpiece,[5]; M-Neb dose+ MN-300/8,90.2 % of the tested dosages
same,particles with a diameter,[5]; M-Neb dose+ MN-300/8,85.7%
same,mass median aerodynamic diameter (MMD) per emitted particle,[5]; M-Neb dose+ MN-300/8 with mouthpiece,3.3-3.5 μm
same,clinical outcome,[6],clinical amelioration
